# Earlier results in patent US20090285767A1, “USE OF OZONATED LIQUIDS AND PEROXIDES TO WHITEN TEETH” (priority 2008, published 2009).
# Conditions: gaseous ozone, device of the Lynch '985 patent
structure (smiles),measurement,value
"O=[O+][O-] [gaseous ozone, ozone]","whitening of extrinsic discoloration, effect on brown-colored melanoidins",ability of gaseous ozone to whiten extrinsic discoloration
